The structures appear in SMILES notation.

What all share (type): cell-based
One test concerns Pyricularia oryzae. Kind of test: microbe, parasite or virus in culture. As to conditions: 168 h, read-out: % control compared to the untreated check (radial growth).
The subject of a further test is Rhizoctonia solani. Kind of test: Rhizoctonia solani (rice sheath blight/potato black scurf) in vitro test, radial growth on Potato Dextrose Agar. As to conditions: 168 h, 300 ppm, seven days, 25° C., read-out: % control compared to the untreated check (radial growth).
The next test concerns Botrytis cinerea. Kind of test: Botrytis cinerea (gray mold) in vitro test, radial growth on Potato Dextrose Agar. As to conditions: 168 h, 300 ppm, seven days, 22° C., read-out: % (control) compared to the untreated check (radial growth).
The next test deals with Alternaria solani. Kind of test: Alternaria solani (early blight of tomato/potato) in vitro test, radial growth on Potato Dextrose Agar. As to conditions: 168 h, 300 ppm, seven days, 25° C., read-out: % control compared to the untreated check (radial growth).
The subject of a further test is Colletotrichum capsici. Kind of test: Colletotrichum capsici (anthracnose) in vitro test, radial growth on Potato Dextrose Agar. As to conditions: Colletotrichum truncatum, 168 h; 300 ppm; seven days, 25° C.; read-out: % control compared to the untreated check (radial growth).
The test system of the next test is Septoria lycopersici. Kind of test: Septoria lycopersici (leaf spot of tomato) in vitro test, radial growth on Potato Dextrose Agar. The note with it: 168 h, seven days, 25° C., read-out: % control compared to the untreated check (radial growth).
A further test concerns Fusarium culmorum. Kind of test: Fusarium culmorum (foot rot of cereals) in vitro test, radial growth on Potato Dextrose Agar. The note with it: Fusarium culmorum, 168 h, read-out: % control compared to the untreated check (radial growth).

For the compound `CCN(C)C=Nc1cc(C)c(Cc2cc(F)ccc2Cl)cc1C` [Compound 143, N′-(4-(2-chloro-5-fluorobenzyl)-2,5-dimethylphenyl)-N-ethyl-N-methylformimidamide], the inhibition of growth at 300 ppm with Pyricularia oryzae was > 75%; in the test on Rhizoctonia solani it was > 80%; with Botrytis cinerea, > 80%; in the test on Alternaria solani, > 75%; in the test on Colletotrichum capsici it was > 80%; in the test on Septoria lycopersici, > 70%. The inhibition of growth at 300 ppm in the test on Fusarium culmorum was found to be 75%.
`CCN(C)C=Nc1cc(C)c(Cc2ccc(F)cc2C)cc1Cl` [Compound 167, N′-(2-chloro-4-(4-fluoro-2-methylbenzyl)-5-methylphenyl)-N-ethyl-N-methylformimidamide]: the inhibition of growth at 300 ppm in the test with Pyricularia oryzae was > 75%; in the test with Rhizoctonia solani, > 80%; with Botrytis cinerea it was > 80%; with Alternaria solani, > 75%; with Colletotrichum capsici it was > 80%; in the test with Septoria lycopersici, > 70%. Moreover, in the test with Fusarium culmorum, the inhibition of growth at 300 ppm came out at 75%.
For the compound `CCN(C)C=Nc1cc(F)c(Cc2cccc(C)c2)cc1C` [Compound 171, N-ethyl-N′-(5-fluoro-2-methyl-4-(3-methylbenzyl)phenyl)-N-methylformimidamide], the inhibition of growth at 300 ppm is > 75% in the test on Pyricularia oryzae; > 80% with Rhizoctonia solani; > 80% with Botrytis cinerea; > 75% in the test on Alternaria solani; > 80% in the test on Colletotrichum capsici; > 70% with Septoria lycopersici. The inhibition of growth at 300 ppm in the test with Fusarium culmorum was determined as 75%.
In the case of `CCN(C)C=Nc1cc(C)c(Cc2ccc(C(F)(F)F)c(F)c2)cc1C` [Compound 158, N-ethyl-N′-(4-(3-fluoro-4-(trifluoromethyl)benzyl)-2,5-dimethylphenyl)-N-methylformimidamide], the inhibition of growth at 300 ppm was > 75% in the test with Pyricularia oryzae; > 80% in the test with Rhizoctonia solani; > 80% with Botrytis cinerea; > 75% in the test on Alternaria solani; > 80% in the test on Colletotrichum capsici; > 70% with Septoria lycopersici. Moreover, in the test on Fusarium culmorum, the inhibition of growth at 300 ppm came to 75%.
As to `CCN(C)C=Nc1cc(C)c(Cc2ccc(C)c(C)c2)cc1C` [Compound 113, N′-(4-(3,4-dimethylbenzyl)-2,5-dimethylphenyl)-N-ethyl-N-methylformimidamide], the inhibition of growth at 300 ppm with Pyricularia oryzae was > 75%; in the test with Rhizoctonia solani, > 80%; with Botrytis cinerea it was > 80%; with Alternaria solani, > 75%; with Colletotrichum capsici, > 80%; in the test with Septoria lycopersici it was > 70%. Further, the inhibition of growth at 300 ppm in the test with Fusarium culmorum is 75%.
As to `CCN(C)C=Nc1cc(C)c(Cc2cccc(Cl)c2)cc1C1CC1` [Compound 199, N′-(4-(3-chlorobenzyl)-2-cyclopropyl-5-methylphenyl)-N-ethyl-N-methylformimidamide], the inhibition of growth at 300 ppm in the test with Pyricularia oryzae is > 75%; in the test on Rhizoctonia solani it was > 80%; with Botrytis cinerea it was > 80%; with Alternaria solani, > 75%; in the test with Colletotrichum capsici, > 80%; in the test on Septoria lycopersici, > 70%. Further, the inhibition of growth at 300 ppm with Fusarium culmorum came to 75%.
For the compound `CCN(C)C=Nc1cc(Cl)c(Cc2ccccc2C)cc1C` [Compound 257, N′-(5-chloro-2-methyl-4-(2-methylbenzyl)phenyl)-N-ethyl-N-methylformimidamide], the inhibition of growth at 300 ppm is > 75% in the test with Pyricularia oryzae; > 80% in the test on Rhizoctonia solani; > 80% with Botrytis cinerea; > 75% with Alternaria solani; > 80% with Colletotrichum capsici; > 70% in the test with Septoria lycopersici. The inhibition of growth at 300 ppm in the test with Fusarium culmorum turned out to be 75%.
With `CCN(C)C=Nc1cc(C)c(Cc2cccc(OC)c2)cc1Cl` [Compound 70, N′-(2-chloro-4-(3-methoxybenzyl)-5-methylphenyl)-N-ethyl-N-methylformimidamide], the inhibition of growth at 300 ppm with Pyricularia oryzae is > 75%; in the test with Rhizoctonia solani, > 80%; in the test on Botrytis cinerea, > 80%; with Alternaria solani, > 75%; with Colletotrichum capsici, > 80%; in the test on Septoria lycopersici it was > 70%. Moreover, the inhibition of growth at 300 ppm with Fusarium culmorum stood at 75%.
Take `Cc1cc(N=CN(C)C(C)C)c(C)cc1Cc1ccccc1Cl` [Compound 82, N′-(4-(2-chlorobenzyl)-2,5-dimethylphenyl)-N-isopropyl-N-methylformimidamide]: the inhibition of growth at 300 ppm is > 75% in the test on Pyricularia oryzae; > 80% with Rhizoctonia solani; > 80% in the test on Botrytis cinerea; > 75% with Alternaria solani; > 80% in the test on Colletotrichum capsici; > 70% in the test on Septoria lycopersici. For the same compound, the inhibition of growth at 300 ppm in the test with Fusarium culmorum was found to be 75%.
On to `CCN(C)C=Nc1cc(C)c(Cc2ccccc2F)cc1C1CC1` [Compound 221, N′-(2-cyclopropyl-4-(2-fluorobenzyl)-5-methylphenyl)-N-ethyl-N-methylformimidamide], for which the inhibition of growth at 300 ppm with Pyricularia oryzae was > 75%; in the test with Rhizoctonia solani, > 80%; in the test with Botrytis cinerea, > 80%; with Alternaria solani, > 75%; with Colletotrichum capsici it was > 80%; in the test on Septoria lycopersici it was > 70%. Further, the inhibition of growth at 300 ppm with Fusarium culmorum is 75%.
As for `CCN(C)C=Nc1cc(C)c(Cc2cccc(C)c2)cc1C1CC1` [Compound 198, N′-(2-cyclopropyl-5-methyl-4-(3-methylbenzyl)phenyl)-N-ethyl-N-methylformimidamide], the inhibition of growth at 300 ppm in the test with Pyricularia oryzae was > 75%; with Rhizoctonia solani, > 80%; in the test on Botrytis cinerea, > 80%; in the test with Alternaria solani it was > 75%; in the test with Colletotrichum capsici, > 80%; in the test with Septoria lycopersici, > 70%. In the test with Fusarium culmorum, the inhibition of growth at 300 ppm is 75%.
For the compound `CCN(C)C=Nc1cc(C)c(Cc2cc(C(F)(F)F)ccc2Cl)cc1C` [Compound 159, N′-(4-(2-chloro-5-(trifluoromethyl)benzyl)-2,5-dimethylphenyl)-N-ethyl-N-methylformimidamide], the inhibition of growth at 300 ppm in the test on Pyricularia oryzae is > 75%; with Rhizoctonia solani, > 80%; in the test on Botrytis cinerea, > 80%; with Alternaria solani, > 75%; with Colletotrichum capsici, > 80%; in the test with Septoria lycopersici, > 70%. Besides, in the test on Fusarium culmorum, the inhibition of growth at 300 ppm turned out to be 75%.
For `CCN(C)C=Nc1cc(C)c(Cc2ccc(OC)cc2)cc1Cl` [Compound 69, N′-(2-chloro-4-(4-methoxybenzyl)-5-methylphenyl)-N-ethyl-N-methylformimidamide], the inhibition of growth at 300 ppm in the test on Pyricularia oryzae was > 75%; with Rhizoctonia solani, > 80%; in the test on Botrytis cinerea, > 80%; in the test on Alternaria solani, > 75%; with Colletotrichum capsici, > 80%; with Septoria lycopersici it was > 70%. Further, the inhibition of growth at 300 ppm with Fusarium culmorum came out at 75%.

(Values after patent US11155517B2, “4-substituted phenylamine derivatives and their use to protect crops by fighting undesired phytopathogenic micoorganisms” (PI INDUSTRIES LTD., priority 2016, dated 2021).)
